# Measurements published in patent US6110491A, “Compound-loaded liposomes and methods for their preparation” (Hermes Biosciences, Inc., priority 1997, dated 2000).
# “Also recorded” adds a separate entry of the source.
# Experiments:
# Type in all cases: physicochemical
# [1] = Effect of membrane-active ion carriers on loading of doxorubicin into liposomes with entrapped potassium polyacrylate (Example 6, FIG. 1); settings: valinomycin, CCCP or nigericin vs. none (FIG. 1)
# Excerpt: The liposomes prepared according to the present invention can be clearly distinguished from similar liposomes prepared by pH gradient, or ammonium ion gradient methods, by the liposomal response to membrane-active ion carriers which destroy transmembrane electrochemical gradients. For example, CCCP is a membrane proton carrier which destroys transmembrane pH gradients and leads to quick release of a liposomal-entrapped compound.
# In contrast, liposomes prepared according to this invention, load doxorubicin in the presence of CCCP or nigericin with nearly the same efficiency as in the absence of such membrane-active ion carriers. This is shown in FIG. 1, where the loading of doxorubicin into liposomes in the presence of valinomycin, CCCP or nigericin was determined as a function of time. The liposomes were prepared as described in Example 1 to have entrapped potassium polyacrylate.
# [2] = Doxorubicin loading into liposomes containing ammonium polyacrylate or sulfate in absence of ammonium ion gradient (Example 7); settings: for Doxorubicin absorbed by liposomes: no ammonium ion gradient; for Doxorubicin incorporation into liposomes: outer Cl-
# Protocol: Liposomes with entrapped ammonium sulfate or ammonium polyacrylate were prepared from the lipid mixture of hydrogenated soybean phosphatidylcholine (Avanti PolarLipids, Ala., U.S.A.), cholesterol (Calbiochem, USA), and poly(ethylene glycol) (Mol. weight 2,000) derivative of distearoyl phosphatidyl ethanolamine (PEG-DSPE) (Sygena, Switzerland), at the molar ratio 60:40:6, by lipid film hydration, repetitive freezing-thawing at 60° C. (6 times) and extrusion through two stacked polycarbonate track-etched membranes with the pore size 100 nm at 60° C. (12 times). The bulk aqueous phase of the liposomes was exchanged by gel-filtration for the outer buffer, 0.2 M ammonium chloride, adjusted (when necessary) to pH 7.3 and buffered with 10 mM sodium hydroxyethylpiperazino-ethane sulfonate (HEPES). The inner (entrapped) solution had ammonium ion concentration of 200 milli-eqivalent/L, i.e. the same as the outer buffer (no ammonium ion gradient), and the anion composition and pH as indicated below. Polyacrylic acid with mol. weight of 2,000 (Aldrich Chemical Co.) was used. Doxorubicin was added to the liposomes at 2 mg for each 6-8 micro-mol of phospholipid, and incubated with shaking at 60° C., i.e. above the transition temperature of the lipid bilayer, for various times as specified below. […] Doxorubicin-loaded liposomes were separated from the free drug by gel-chromatography on Sephadex G-75, eluted with the outer buffer. Liposomal doxorubicin was assayed by spectrophotometry at 485 nm, phospholipid was quantitated by molybdate method after acid digestion of the liposomes.
# [3] = Doxorubicin precipitation by Inner Buffer anions (Example 9); settings: for Doxorubicin precipitation: 1 mg/ml, 22° C., 3 hours
# Protocol: Doxorubicin hydrochloride was added to the aliquots of Inner Buffers described in the Example 8 above to achieve final concentration of 1 mg/ml. The mixtures were briefly incubated at 60° C. to effect maximum drug dissolution, and further equilibrated at ambient temperature (22° C.) with gentle shaking for 3 hours. Precipitated doxorubicin was separated by centrifugation of an Eppendorf centrifuge (10,000 rpm, 5 min.), and the amount of doxorubicin in supernatant fluid was determined by spectrophotometry. The percent of drug precipitation was calculated as 100% less the percent of doxorubicin remaining in the supernatant fluid relative to the total added doxorubicin.
smiles,measurement,setting,value
COc1cccc2c1C(=O)c1c(O)c3c(c(O)c1C2=O)C[C@@](O)(C(=O)CO)C[C@@H]3O[C@H]1C[C@H](N)[C@H](O)[C@H](C)O1 [doxorubicin],Doxorubicin loading in presence of membrane-active ion carriers,[1],substantially equal efficiency; also recorded: substantially unaffected
same,Doxorubicin absorbed by liposomes,[2]; ammonium polyacrylate liposomes,considerable amounts
same,Doxorubicin absorbed by liposomes,"[2]; ammonium sulfate liposomes, 60° C.",very small amounts
same,Doxorubicin precipitate formation,"[2]; in the presence of polyacrylate anion, 60° C.",visibly precipitated
same,Doxorubicin precipitate formation,"[2]; in the presence of sulfate anion, 60° C.",did not form a detectable precipitate
same,Doxorubicin incorporation into liposomes,"[2]; inner SO4^2-, pH 7.3, 1 hour, 60° C.",6.1 ± 0.8 mg of drug/mmol of liposome ph
same,Doxorubicin incorporation into liposomes,"[2]; inner SO4^2-, pH 7.3, 16 hours, 60° C.",5.1 ± 0.2 mg of drug/mmol of liposome ph
same,Doxorubicin incorporation into liposomes,"[2]; inner polyacrylate, pH 5.2, 1 hour, 60° C.",59.7 ± 2.5 mg of drug/mmol of liposome ph
same,Doxorubicin incorporation into liposomes,"[2]; inner polyacrylate, pH 7.3, 1 hour, 60° C.",91.0 ± 2.8 mg of drug/mmol of liposome ph
same,"correlation coefficient R, extent of drug loading vs. drug solubility in Inner Buffer",[3]; Examples 8 and 9,0.9043
same,Doxorubicin precipitation,[3]; inner buffer anion DTPA,58.1%
same,Doxorubicin precipitation,[3]; inner buffer anion L(+)-tartrate,25.0%
same,Doxorubicin precipitation,[3]; inner buffer anion chloride,1.1%
same,Doxorubicin precipitation,[3]; inner buffer anion citrate,81.4%
same,Doxorubicin precipitation,[3]; inner buffer anion methanesulfonate,0%
same,Doxorubicin precipitation,[3]; inner buffer anion nitrate,0%
same,Doxorubicin precipitation,[3]; inner buffer anion phosphate,73.7%
same,Doxorubicin precipitation,[3]; inner buffer anion polyacrylate,98.4%
same,Doxorubicin precipitation,[3]; inner buffer anion sulfate,47.5%
